Test results as given in ChEMBL document CHEMBL5236564, “An overview of the development of EED inhibitors to disable the PRC2 function” (RSC Med Chem, 2022).
One block for each compound: values may come before it. Bridge positions count the residues as written; N and C are the ends. Square brackets hold non-standard residues; d marks the D form. Peptide text beside a SMILES is read from it. ξ: configuration not given here. S5 = C=CCCC[C@](C)(N)C(=O)O; ξIle = CC[C@H](C)C(N)C(=O)O

How the values were obtained:
[1] = Inhibition of EED/EZH2 (unknown origin) interaction by fluorescence polarization assay; set-up: species or system Homo sapiens
Polycomb protein EED [2] = target: T1, Polycomb protein EED (Homo sapiens, UniProt O75530); assay: Displacement of H3K27me3 from EED (unknown origin) by competitive binding assay
Target sequence in this assay (O75530 whole entry): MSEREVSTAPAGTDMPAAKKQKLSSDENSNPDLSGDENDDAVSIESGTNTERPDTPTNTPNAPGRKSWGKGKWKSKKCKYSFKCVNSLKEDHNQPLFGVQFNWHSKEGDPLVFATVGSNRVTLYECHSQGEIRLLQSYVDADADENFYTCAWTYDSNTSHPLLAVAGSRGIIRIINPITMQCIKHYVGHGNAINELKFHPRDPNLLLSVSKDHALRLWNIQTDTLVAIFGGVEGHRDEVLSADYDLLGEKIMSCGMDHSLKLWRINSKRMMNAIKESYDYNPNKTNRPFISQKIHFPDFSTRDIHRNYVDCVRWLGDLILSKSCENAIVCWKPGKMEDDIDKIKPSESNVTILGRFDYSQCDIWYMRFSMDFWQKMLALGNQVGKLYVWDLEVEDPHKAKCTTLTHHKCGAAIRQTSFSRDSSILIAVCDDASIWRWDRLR

KARPAS-422 [3] = assay: Antitumor activity against human KARPAS-422 cells xenografted in mouse assessed as tumor growth inhibition at 100 mg/kg, po administered twice daily for 36 days relative to control; assay type: functional; conditions: KARPAS-422, 864 h, time 36 day, read-out: TGI
Pfeiffer = assay: Antitumor activity against human Pfeiffer cells xenografted in mouse assessed as tumor growth inhibition at 100 mg/kg, po administered twice daily for 36 days relative to control; assay type: functional; conditions: 864 h, time 36 day, read-out: TGI
[4] = Inhibition of human N- terminal 6 his sumo-tagged EED (81 to 441 residues)/EZH2(39 to 63 residues) (unknown origin) interaction expressed in Escherichia coli BL21(DE3) incubated for 2 hrs by fluorescence polarization based competitive assay
[5] = Oral bioavailability in mouse; assay type: ADME, organism-based; conditions: in vivo
[6] = Inhibition of PRC2 (unknown origin) using H3K27me0 as peptide substrate by LC-MS based analysis; set-up: species or system Homo sapiens
EZH2/SUZ12/EED complex = EZH2/SUZ12/EED complex (Homo sapiens, UniProt O75530+Q15022+Q15910); assay: Binding affinity to PRC2 complex of EZH2-EED-SUZ12 (unknown origin) assessed as dissociation constant by isothermal titration calorimetry method; assay type: protein-complex assay
EZH2/SUZ12/EED complex, sequence (Q15910 whole entry): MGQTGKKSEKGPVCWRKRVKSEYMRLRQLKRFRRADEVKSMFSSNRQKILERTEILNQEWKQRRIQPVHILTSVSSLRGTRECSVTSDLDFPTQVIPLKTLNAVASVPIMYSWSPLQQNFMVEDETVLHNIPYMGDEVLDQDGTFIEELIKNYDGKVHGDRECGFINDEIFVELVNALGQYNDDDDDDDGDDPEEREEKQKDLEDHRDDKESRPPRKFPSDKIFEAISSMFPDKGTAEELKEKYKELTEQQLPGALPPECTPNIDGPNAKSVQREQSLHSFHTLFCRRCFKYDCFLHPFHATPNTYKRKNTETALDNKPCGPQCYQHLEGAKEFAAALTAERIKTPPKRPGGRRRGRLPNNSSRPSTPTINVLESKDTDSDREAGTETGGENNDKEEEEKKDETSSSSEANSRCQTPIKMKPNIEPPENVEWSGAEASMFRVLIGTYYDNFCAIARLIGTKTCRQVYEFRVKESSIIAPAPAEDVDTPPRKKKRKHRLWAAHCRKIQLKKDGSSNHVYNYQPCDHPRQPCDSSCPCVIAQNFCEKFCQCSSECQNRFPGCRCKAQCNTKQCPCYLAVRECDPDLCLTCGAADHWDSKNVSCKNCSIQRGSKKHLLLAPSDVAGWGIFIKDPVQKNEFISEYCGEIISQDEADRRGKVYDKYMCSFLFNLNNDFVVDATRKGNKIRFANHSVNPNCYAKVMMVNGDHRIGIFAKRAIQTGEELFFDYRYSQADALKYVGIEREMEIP
EZH2/SUZ12/EED complex, sequence (O75530 whole entry): as the sequence (O75530 whole entry) above
EZH2/SUZ12/EED complex, sequence (Q15022 whole entry): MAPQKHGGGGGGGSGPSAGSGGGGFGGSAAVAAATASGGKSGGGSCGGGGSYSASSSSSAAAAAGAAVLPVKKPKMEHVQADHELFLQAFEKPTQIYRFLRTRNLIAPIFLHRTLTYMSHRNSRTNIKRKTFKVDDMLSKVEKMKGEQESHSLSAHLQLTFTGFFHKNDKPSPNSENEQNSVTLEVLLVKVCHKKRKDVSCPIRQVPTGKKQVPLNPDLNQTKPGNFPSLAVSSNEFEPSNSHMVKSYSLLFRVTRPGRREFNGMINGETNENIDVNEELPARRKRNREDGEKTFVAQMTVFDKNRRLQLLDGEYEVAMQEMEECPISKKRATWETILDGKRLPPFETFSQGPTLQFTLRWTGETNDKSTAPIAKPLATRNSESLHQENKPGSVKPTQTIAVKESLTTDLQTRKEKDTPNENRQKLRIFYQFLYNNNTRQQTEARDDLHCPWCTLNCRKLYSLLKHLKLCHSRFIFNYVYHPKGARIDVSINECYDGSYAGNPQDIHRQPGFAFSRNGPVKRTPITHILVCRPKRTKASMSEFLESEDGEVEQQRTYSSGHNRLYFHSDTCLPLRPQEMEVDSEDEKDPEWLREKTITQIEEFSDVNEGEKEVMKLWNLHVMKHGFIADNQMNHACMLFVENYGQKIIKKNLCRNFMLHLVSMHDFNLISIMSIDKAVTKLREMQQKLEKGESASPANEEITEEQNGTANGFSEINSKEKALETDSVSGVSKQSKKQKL

KARPAS-422 [7] = assay: Synergistic growth inhibition against human KARPAS-422 cells assessed as reduction in cell proliferation by measuring synergistic score at upto 10 uM measured after 6 days in presence of EI1; assay type: functional; conditions: time 6 day
KARPAS-422 [8] = assay: Synergistic growth inhibition against human KARPAS-422 cells assessed as reduction in H3K27me3 level by measuring synergistic score upto 10 uM measured after 4 days in presence of EI1; assay type: functional; conditions: time 4 day
KARPAS-422 [9] = assay: Antitumor activity against human KARPAS-422 cells xenografted in mouse at 40 mg/kg via oral gavage and mesured after 32 days by caliper method relative to control; assay type: functional; conditions: KARPAS-422, 768 h, time 32 day, read-out: TGI
[10] = target: EZH2/SUZ12/EED complex (Homo sapiens) (UniProt Q15910+O75530+Q15022)
EZH2/SUZ12/EED complex (Homo sapiens), sequence (O75530 2-441 partner limits assumed): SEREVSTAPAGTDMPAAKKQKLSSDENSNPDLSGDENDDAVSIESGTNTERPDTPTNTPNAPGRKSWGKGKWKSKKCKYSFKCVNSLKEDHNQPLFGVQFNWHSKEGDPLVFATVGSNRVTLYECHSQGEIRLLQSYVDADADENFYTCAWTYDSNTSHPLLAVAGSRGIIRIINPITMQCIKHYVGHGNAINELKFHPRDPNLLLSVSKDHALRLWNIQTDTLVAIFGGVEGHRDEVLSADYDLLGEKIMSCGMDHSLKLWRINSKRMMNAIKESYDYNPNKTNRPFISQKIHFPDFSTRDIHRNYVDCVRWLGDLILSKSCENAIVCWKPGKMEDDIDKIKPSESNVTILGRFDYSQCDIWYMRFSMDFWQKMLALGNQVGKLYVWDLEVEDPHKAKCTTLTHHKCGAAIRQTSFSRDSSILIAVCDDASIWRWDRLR
EZH2/SUZ12/EED complex (Homo sapiens), sequence (Q15022 whole entry partner): as the sequence (Q15022 whole entry) above
EZH2/SUZ12/EED complex (Homo sapiens), sequence (Q15910 whole entry): as the sequence (Q15910 whole entry) above
Description: Stabilization of PRC2 complex of EZH2-EED-SUZ12 (unknown origin) assessed as thermal stability by measuring increase in melting temperature by thermal shift assay

Polycomb protein EED [11] = target: T1, Polycomb protein EED; assay: Stabilization of EED (unknown origin) assessed as change in melting temperature by thermal shift assay; conditions: tested as the 2H-labelled form
Target sequence in this assay (O75530 2-441 limits assumed): as the sequence (O75530 2-441 partner limits assumed) above

Polycomb protein EED [12] = target: T1, Polycomb protein EED; assay: Binding affinity to C-terminal histidine tagged EED (unknown origin) expressed in Escherichia coli BL21(DE3) incubated for 15 mins by fluorescence polarization analysis
Target sequence in this assay (O75530 whole entry): as the sequence (O75530 whole entry) above

[13] = Synergistic cell viability against human MLL-AF9 cells by measuring combination index score at 0.3 to 3 uM measured after 7 days in presence of GSK126; assay type: functional; conditions: dose 0.3-3 µM; time 7 day
KARPAS-422 [14] = assay: Synergistic cell viability against human KARPAS-422 cells by measuring combination index score at 0.3 to 3 uM measured after 7 days in presence of GSK126; assay type: functional; conditions: dose 0.3-3 µM; time 7 day
Polycomb protein EED [15] = target: T1, Polycomb protein EED; assay: Binding affinity to his tagged EED (1 to 441 residues) (unknown origin) incubated for 20 mins in presence of biotinylated H3K27me3 peptide (19 to 33 residues) by alphascreen competitive binding assay
Target sequence in this assay (O75530 whole entry): as above

Structure (SMILES): [2H]C([2H])(Nc1ncc(-c2cccnc2C)c(=O)[nH]1)c1c(F)ccc2c1CCO2
IC50 (Polycomb protein EED [2]): 0.0045 µM
inhibition in vivo at 100 mg/kg (KARPAS-422 [3]): 85%
inhibition in vivo at 100 mg/kg (Pfeiffer): 96%

Structure (SMILES): Cc1sc(NC(=O)CCCCC(=O)Nc2sc(C)c(C)c2C(N)=O)c(C(N)=O)c1C
IC50 [4]: 54.9 µM

Structure (SMILES): COC(=O)C1=C(C)NC(C)=C(C(=O)OC)C1c1ccccc1[N+](=O)[O-] [NIFEDIPINE]
IC50 [1]: 343 µM

Structure (SMILES): CS(=O)(=O)c1ccc(-c2cnc(NCc3ccco3)n3cnnc23)cc1
IC50 [6]: 0.0234 µM
Kd (EZH2/SUZ12/EED complex): 0.082 µM
Activity (KARPAS-422 [7]): 1.67
Activity (KARPAS-422 [8]): 2.17
inhibition in vivo at 40 mg/kg (KARPAS-422 [9]): 100%
ΔTm [10]: > 8 °C

Structure (SMILES): CC[C@H](C)C1NC(=O)[C@H](CCCCN)NC(=O)[C@@](C)(NC(=O)[C@H](CCCNC(=N)N)NC(=O)[C@H](CC(N)=O)NC(=O)[C@H](CO)NC(=O)[C@H](CO)NC(=O)[C@H](Cc2ccccc2)NC(C)=O)CCC/C=C/CCC[C@@](C)(C(=O)N[C@@H](CCCNC(=N)N)C(=O)N[C@H](C(=O)N[C@@H](CCC(N)=O)C(=O)N[C@H](C(=O)N[C@@H](CC(C)C)C(=O)N[C@@H](CC(N)=O)C(=O)N[C@@H](CCC(N)=O)C(=O)N[C@@H](CCC(=O)O)C(=O)N[C@@H](Cc2c[nH]c3ccccc23)C(=O)N[C@@H](CCCCN)C(=O)N[C@@H](CCC(N)=O)C(=O)N[C@@H](CCCNC(=N)N)C(=O)N[C@@H](CCCNC(=N)N)C(=O)N[C@H](C(=O)N[C@@H](CCC(N)=O)C(=O)N2CCC[C@H]2C(=O)N[C@H](C(=O)O)C(C)C)[C@@H](C)CC)[C@@H](C)CC)[C@@H](C)O)NC(=O)[C@H](CC(C)C)NC1=O (stereo not given in full) (Ac-FSSNR[S5]K[ξIle]L[S5]RTQILNQEWKQRRIQPV-OH; staple (E) 6-10)
Kd (Polycomb protein EED [12]): 0.00032 µM
Activity [13]: 0.11
Activity (KARPAS-422 [14]): 0.74

The next lines start with the values.

IC50 [1]: 229 µM
Structure (SMILES): CCCCC1C(=O)N(c2ccccc2)N(c2ccc(O)cc2)C1=O (stereo not given) [OXYPHENBUTAZONE ANHYDROUS]

bioavailability [5]: 0.2%
Structure (SMILES): CC[C@@H](C)n1cc(C)c2c(C(=O)NCc3c(C)cc(C)[nH]c3=O)cc(-c3ccc(N4CCNCC4)nc3)cc21

IC50 [1]: 15.5 µM
Structure (SMILES): CN1CCc2cccc3c2[C@H]1Cc1ccc(O)c(O)c1-3 [APOMORPHINE]

IC50 [4]: 63.9 µM
Structure (SMILES): Cc1ccc(C(C2=C(O)CC(C)(C)CC2=O)C2C(=O)CC(C)(C)CC2=O)s1 (stereo not given)

ΔTm (Polycomb protein EED [11]): 6 °C
Structure (SMILES): Cc1ncccc1-c1cnc(NCc2c(F)ccc3c2CCO3)[nH]c1=O

IC50 (Polycomb protein EED [15]): 8.76 µM
Structure (SMILES): Cc1cc(C)n(-c2cc(N3CCCc4ccccc43)ccc2[N+](=O)[O-])n1
